Test results: ChEMBL document CHEMBL1687706, “Inhibition of human immunodeficiency virus type 1 replication in human cells by Debio-025, a novel cyclophilin binding agent” (Antimicrob Agents Chemother, 2008)
Calls of active or inactive are those of the source. The calls are words filed in the database; no cut-off is given here.

Experiments:
Rattus norvegicus [1] = assay: Immunosuppressive activity in Sprague-Dawley rat […] model assessed as percent T lymphocytes at 50 mg/kg, po administered once daily for 28 days by flow cytometry; format: functional
Rattus norvegicus [2] = assay: Immunosuppressive activity in Sprague-Dawley rat […] model assessed as percent T lymphocytes at 10 mg/kg, po administered once daily for 28 days by flow cytometry; format: functional
Jurkat = assay: Immunosuppressive activity in human Jurkat cells assessed as inhibition of PHA-phorbol myristate acetate induced beta-galactosidase activity at 21.5 uM; format: functional, cell-based
[3] = tested on: Human immunodeficiency virus 1; assay: Antiviral activity against HIV-1 NL4-3 infected in human TZB cells assessed as inhibitory effect on the completion of viral double stranded DNA at 0.5 to 2.5 uM by RT-PCR; format: functional, organism-based
Rattus norvegicus [4] = assay: Immunosuppressive activity in Sprague-Dawley rat […] model assessed as percent T-helper cells at 10 mg/kg, po administered once daily for 28 days by flow cytometry; format: functional
Rattus norvegicus [5] = assay: Immunosuppressive activity in Sprague-Dawley rat KHL model assessed as percent T-helper cells at 50 mg/kg, po administered once daily for 28 days by flow cytometry; format: functional
[6] = tested on: Human immunodeficiency virus 1; assay: Antiviral activity against HIV1 subtype A 92UG037 infected in human PBMC assessed as inhibition of viral replication by ELISA; format: functional, organism-based; conditions: Human immunodeficiency virus 1, subtype A 92UG037
[7] = tested on: Human immunodeficiency virus 1; assay: Antiviral activity against HIV1 subtype B NL4-3 infected in human PBMC assessed as inhibition of viral replication by ELISA; format: functional, organism-based; conditions: Human immunodeficiency virus 1, subtype B NL4-3
[8] = tested on: Human immunodeficiency virus 1; assay: Antiviral activity against HIV1 subtype B JR-CSF infected in human PBMC assessed as inhibition of viral replication by ELISA; format: functional; conditions: Human immunodeficiency virus 1, JRCSF ISOLATE
[9] = tested on: Human immunodeficiency virus 1; assay: Antiviral activity against HIV1 subtype B SF162 infected in human PBMC assessed as inhibition of viral replication by ELISA; format: functional; conditions: Human immunodeficiency virus 1, SF162 ISOLATE
[10] = tested on: Human immunodeficiency virus 1; assay: Antiviral activity against HIV1 subtype B Ba-L infected in human PBMC assessed as inhibition of viral replication by ELISA; format: functional, organism-based; conditions: Human immunodeficiency virus 1, subtype B Ba-L
[11] = tested on: Human immunodeficiency virus 1; assay: Antiviral activity against HIV1 subtype B SLKA infected in human PBMC assessed as inhibition of viral replication by ELISA; format: functional, organism-based; conditions: Human immunodeficiency virus 1, subtype B SLKA
[12] = tested on: Human immunodeficiency virus 1; assay: Antiviral activity against HIV1 subtype B ROJO infected in human PBMC assessed as inhibition of viral replication by ELISA; format: functional, organism-based; conditions: Human immunodeficiency virus 1, subtype B ROJO
[13] = tested on: Human immunodeficiency virus 1; assay: Antiviral activity against HIV1 subtype C 92BR025 infected in human PBMC assessed as inhibition of viral replication by ELISA; format: functional, organism-based; conditions: Human immunodeficiency virus 1, subtype C 92BR025
[14] = tested on: Human immunodeficiency virus 1; assay: Antiviral activity against HIV1 subtype F 93BR020 infected in human PBMC assessed as inhibition of viral replication by ELISA; format: functional, organism-based; conditions: Human immunodeficiency virus 1, subtype F 93BR020
[15] = tested on: Human immunodeficiency virus 1; assay: Antiviral activity against ABC, ddC, ddI, TDF, AZT, d4T-resistant HIV-1 G910-6 infected in human PBMC assessed as inhibition of viral replication by ELISA; format: functional, organism-based; conditions: Human immunodeficiency virus 1, G910-6
[16] = tested on: Human immunodeficiency virus 1; assay: Antiviral activity against APV, ATV, IDV, LPV, NFV, RTV, SQV, AZT, ddI, 3TC, d4T-resistant HIV-1 MDR1385 infected in human PBMC assessed as inhibition of viral replication by ELISA; format: functional, organism-based; conditions: Human immunodeficiency virus 1, MDR1385
[17] = tested on: Simian immunodeficiency virus; assay: Antiviral activity against Simian immunodeficiency virus PBj infected in human PBMC assessed as inhibition of viral replication by RT activity; format: functional, organism-based
[18] = tested on: Human immunodeficiency virus 2; assay: Antiviral activity against HIV-2 isolate CDC310342 infected in human PBMC assessed as inhibition of viral replication; format: functional, organism-based; conditions: Human immunodeficiency virus 2, isolate CDC310342
[19] = tested on: Human immunodeficiency virus 2; assay: Antiviral activity against HIV-2 isolate CDC310319 infected in human PBMC assessed as inhibition of viral replication; format: functional, organism-based; conditions: Human immunodeficiency virus 2, isolate CDC310319
[20] = Cytotoxicity against african green monkey Vero cells; format: cell-based; conditions: chlorocebus sabaeus, read-out: TC50 (the source's name)
Influenza A virus = assay: Antiviral activity against Influenza A virus H3N2 infected in MDCK cells assessed as inhibition of viral replication; format: functional, organism-based
Human respirovirus 3 = assay: Antiviral activity against Parainfluenza 3 infected in african green monkey Vero cells assessed as inhibition of viral replication; format: functional, organism-based; conditions: Human respirovirus 3, Vero
SARS-CoV = assay: Antiviral activity against SARS coronavirus infected in african green monkey Vero cells assessed as inhibition of viral replication; format: functional, organism-based; conditions: Severe acute respiratory syndrome-related coronavirus
Hepatitis C virus = assay: Antiviral activity against HCV infected in human Huh 5.2 cells assessed as reduction in viral RNA level by luciferase reporter gene assay; format: functional, organism-based, Hepacivirus hominis; conditions: Huh-5-2
Human alphaherpesvirus 2 [21] = assay: Antiviral activity against Herpes simplex virus 2 G infected in human embryonic lung cells assessed as inhibition of viral replication; format: functional, organism-based; conditions: Human alphaherpesvirus 2, strain G
Human alphaherpesvirus 2 [22] = assay: Antiviral activity against Herpes simplex virus 2 196 infected in human embryonic lung cells assessed as inhibition of viral replication; format: functional, organism-based; conditions: Human alphaherpesvirus 2, 196, lung
Human alphaherpesvirus 2 [23] = assay: Antiviral activity against Herpes simplex virus 2 Lyons infected in human embryonic lung cells assessed as inhibition of viral replication; format: functional, organism-based; conditions: Human alphaherpesvirus 2, Lyons
Human betaherpesvirus 5 = assay: Antiviral activity against Human cytomegalovirus Davis infected in human embryonic lung cells assessed as reduction in viral yield; format: functional, organism-based; conditions: Human betaherpesvirus 5, Davis
Vaccinia virus = assay: Antiviral activity against Vaccinia virus infected in human embryonic lung cells assessed as reduction in viral yield measured after 3 days; format: functional, organism-based; conditions: Orthopoxvirus vaccinia, 72 h
[24] = tested on: Human papillomavirus type 16; assay: Antiviral activity against HPV-16 infected in Caski cells assessed as inhibition of viral replication after 3 days; format: functional, organism-based, Human papillomavirus 16
[25] = Antiviral activity against HPV-18 infected in human HeLa cells assessed as inhibition of viral replication after 3 days; format: functional, cell-based; conditions: human papillomavirus 18, HeLa, 72 h; read-out: TC50 (the source's name)
[26] = tested on: Human papillomavirus type 16; assay: Antiviral activity against HPV-16 infected in Caski cells assessed as inhibition of viral replication after 7 days; format: functional, Human papillomavirus 16
[27] = Antiviral activity against HPV-18 infected in human HeLa cells assessed as inhibition of viral replication after 7 days; format: functional; conditions: human papillomavirus 18, HeLa, 168 h; read-out: TC50 (the source's name)
[28] = tested on: Human immunodeficiency virus 1; assay: Antiviral activity against HIV-1 NL4-3 infected in human TZB cells assessed as inhibition of accumulation of early viral transcripts at 0.5 to 2.5 uM by RT-PCR; format: functional, organism-based
[29] = tested on: Human immunodeficiency virus 1; assay: Antiviral activity against HIV-1 NL4-3 cells infected in human TZB cells assessed as degradation of cDNA at 0.5 to 2.5 uM after 6 hrs postinfection by RT-PCR; format: functional, organism-based
[30] = tested on: Human immunodeficiency virus 1; assay: microbe, parasite or virus in culture; conditions: Human immunodeficiency virus 1, SF2
[31] = tested on: Human respiratory syncytial virus; assay: Antiviral activity against RSV infected in human HeLa cells assessed as inhibition of viral replication

C/C=C/C[C@@H](C)[C@@H](O)[C@H]1C(=O)N[C@@H](CC)C(=O)N(C)[C@H](C)C(=O)N(CC)[C@@H](C(C)C)C(=O)N[C@@H](C(C)C)C(=O)N(C)[C@@H](CC(C)C)C(=O)N[C@@H](C)C(=O)N[C@H](C)C(=O)N(C)[C@@H](CC(C)C)C(=O)N(C)[C@@H](CC(C)C)C(=O)N(C)[C@@H](C(C)C)C(=O)N1C [ALISPORIVIR]
Activity (Rattus norvegicus [1]): 50% | Activity (Rattus norvegicus [2]): 52.4% | inhibition (Jurkat): Active | inhibition [3]: Active | Activity (Rattus norvegicus [4]): 29.8% | Activity (Rattus norvegicus [5]): 32.8% | IC50 [6]: 16 nM | IC50 [7]: 10 nM | IC50 [8]: 15 nM | IC50 [9]: 15 nM | IC50 [10]: 3.53 µM | IC50 [11]: 25 nM | IC50 [12]: 24 nM | IC50 [13]: 15 nM | IC50 [14]: 6.25 µM | IC50 [15]: 29 nM | IC50 [16]: 58 nM | IC50 [17]: 7.97 µM | IC50 [18]: 58 nM | IC50 [19]: 10.5 µM | CC50 [20]: 16.6 µM | IC50 (Influenza A virus): > 9.9 µM | IC50 (Human respirovirus 3): > 25 µM | IC50 (SARS-CoV): 7.7 µM | IC50 (Hepatitis C virus): 220 nM | IC50 (Human alphaherpesvirus 2 [21]): > 25 µM | IC50 (Human alphaherpesvirus 2 [22]): > 25 µM | IC50 (Human alphaherpesvirus 2 [23]): > 25 µM | IC50 (Human betaherpesvirus 5): 6.1 µM | IC50 (Vaccinia virus): > 25 µM | TC50 [24]: 1.2 µM | CC50 [25]: 6.5 µM | TC50 [26]: 0.6 µM | CC50 [27]: 3.3 µM | inhibition [28]: inactive | Activity [29]: Active | IC50 [30]: 63 nM | IC50 [31]: > 8.2 µM
